This note sets out measurements from ChEMBL document CHEMBL3045440, “Determination of stereoselective interaction between enantiomers of chiral gamma-aryl-1H-1,2,4-triazole derivatives and Penicillium digitatum” (J Agric Food Chem, 2009).

Series [1] has as its system Penicillium digitatum. The experiment in a line: Fungicidal activity against Penicillium digitatum at 50 mg/l at 26 degC after 48 hr by growth inhibition test. In kind it is functional. The following applies: read-out: GI.
Series [2] concerns Penicillium digitatum. The experiment in a line: Fungicidal activity against Penicillium digitatum at 26 degC after 48 hr by growth inhibition test. In kind it is functional, organism-based.
Series [3] has as its target T1, Cytochrome P450 14alpha-demethylase (Penicillium digitatum, UniProt A1XG20).
T1 sequence (A1XG20 whole entry): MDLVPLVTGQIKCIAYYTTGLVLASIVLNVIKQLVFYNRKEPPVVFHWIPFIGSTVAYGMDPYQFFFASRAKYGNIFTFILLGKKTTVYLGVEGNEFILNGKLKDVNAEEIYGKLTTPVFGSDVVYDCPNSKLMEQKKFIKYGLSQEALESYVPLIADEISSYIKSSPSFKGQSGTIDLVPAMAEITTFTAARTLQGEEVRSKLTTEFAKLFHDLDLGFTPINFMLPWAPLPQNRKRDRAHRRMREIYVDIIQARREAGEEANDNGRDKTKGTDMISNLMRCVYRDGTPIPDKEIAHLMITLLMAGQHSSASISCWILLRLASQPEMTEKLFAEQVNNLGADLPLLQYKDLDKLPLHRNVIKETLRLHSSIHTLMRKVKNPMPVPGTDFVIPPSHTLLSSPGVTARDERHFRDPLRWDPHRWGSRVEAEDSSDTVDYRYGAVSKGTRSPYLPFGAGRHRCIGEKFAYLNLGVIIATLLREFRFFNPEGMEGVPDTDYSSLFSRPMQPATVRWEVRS
The experiment in a line: Binding affinity to Penicillium digitatum CYP51 expressed in Escherichia coli BL21 (DE3) cells assessed as absorption spectral changes with maximum at 420-430 nm and trough at 385-400 nm (type II) by binding spectrum method.

In series [4] the target is T1, Cytochrome P450 14alpha-demethylase. The experiment in a line: Binding affinity to Penicillium digitatum CYP51 expressed in Escherichia coli BL21 (DE3) cells by binding spectrum method.
Series [5] shares this target. The experiment in a line: Binding affinity to Penicillium digitatum CYP51 expressed in Escherichia coli BL21 (DE3) cells assessed as absorption spectral changes with maximum at 420-430 nm and trough at 390-410 nm (type II) by binding spectrum method.
The target is the same in series [6]. The experiment in a line: Binding affinity to Penicillium digitatum CYP51 expressed in Escherichia coli BL21 (DE3) cells assessed as absorption spectral changes with maximum at 390 nm and trough at 420 nm (type I) by binding spectrum method.

Values after ≈ are worked out from the molar mass of the structure shown. Where only a bound is given, the exact number is not on record here.

For orientation: EC50 means the concentration giving half of the maximal effect. Consider `CC(C)(C)C(O)/C(=C/c1ccc(Cl)cc1Cl)n1cncn1` (stereo not given) [DINICONAZOLE], for which the inhibition of growth at 50 µg/mL with Penicillium digitatum [1] stood at 100%. In the series on Penicillium digitatum [2], this compound returned an EC50 of 0.09 mg/L (≈ 0.276 µM).

For orientation: Kd means a measure of binding affinity in units of concentration. Take `CC[C@H](CCn1cncn1)c1ccc(Cl)cc1`: the inhibition of growth at 50 µg/mL in the series with Penicillium digitatum [1] turned out to be 92%. Further, the result in series [3] was Active. In the series on Penicillium digitatum [2], this compound yielded an EC50 of 0.587 mg/L (≈ 2.35 µM). In addition, the Kd in series [4] (read-out: Kd) worked out at 0.15 µM.

As to `CC[C@@H](CCn1cncn1)c1ccc(F)cc1`, the inhibition of growth at 50 µg/mL in the series on Penicillium digitatum [1] was 78%. Also, in series [3], the outcome was Active. In series [4] (read-out: Kd), the Kd worked out at 0.23 µM.

With `CC[C@H](CCn1cncn1)c1ccc(F)cc1`, the inhibition of growth at 50 µg/mL in the series on Penicillium digitatum [1] was 88%. Besides, in series [3], the result was Active. Also, the Kd in series [4] (read-out: Kd) came out at 0.081 µM.

Turning to `CCCC[C@H](CCn1cncn1)c1ccc(F)cc1`, the inhibition of growth at 50 µg/mL in the series with Penicillium digitatum [1] was determined as 100%. The outcome in series [3] was Active. The compound further gave an EC50 in the series with Penicillium digitatum [2] of 0.88 mg/L (≈ 3.37 µM). Further, the Kd in series [4] (read-out: Kd) is 0.09 µM.

Regarding `CC[C@@H](CCn1cncn1)c1ccccc1`, the inhibition of growth at 50 µg/mL with Penicillium digitatum [1] is 20%. For the same compound, the result in series [3] was Active. In the series with Penicillium digitatum [2], the response was half-maximal at 89.6 mg/L (≈ 416 µM) (EC50). Also, in series [4] (read-out: Kd), the dissociation constant (Kd) was found to be 1.66 µM.

Turning to `CCCC[C@H](CCn1cncn1)c1ccc(OC)cc1`, the inhibition of growth at 50 µg/mL in the series with Penicillium digitatum [1] is 100%. The result in series [3] was Active. For the same compound, the midpoint of the response with Penicillium digitatum [2], the EC50, lay at 0.62 mg/L (≈ 2.27 µM). For the same compound, in series [4] (read-out: Kd), the Kd turned out to be 0.049 µM.

For the compound `CC(C)(C)C(O)C(Oc1ccc(Cl)cc1)n1cncn1` (stereo not given) [TRIADIMENOL], the inhibition of growth at 50 µg/mL in the series with Penicillium digitatum [1] worked out at 100%. Further, the result in series [5] was Active. For the same compound, in the series on Penicillium digitatum [2], the response was half-maximal at 1.44 mg/L (≈ 4.87 µM) (EC50). For the same compound, the Kd in series [4] (read-out: Kd) came to 0.64 µM.

For `CCCC[C@@H](CCn1cncn1)c1ccc(C)cc1`, in the series on Penicillium digitatum [1], the inhibition of growth at 50 µg/mL turned out to be 87%. Besides, in series [3], the result was Active. In series [4] (read-out: Kd), the Kd came out at 1.22 µM.

For the compound `CCC[C@@H](CCn1cncn1)c1ccc(OC)cc1`, the inhibition of growth at 50 µg/mL with Penicillium digitatum [1] is below 5%. The compound further showed an EC50 with Penicillium digitatum [2] of 138 mg/L (≈ 534 µM). In series [4] (bl21-de3), the Kd result is given as “Not Active”.

`CC(C)(C)C(O)(CCc1ccc(Cl)cc1)Cn1cncn1` (stereo not given) [TEBUCONAZOLE]: the inhibition of growth at 50 µg/mL in the series on Penicillium digitatum [1] amounted to 100%. In addition, the outcome in series [6] was Active. Besides, the EC50 in the series with Penicillium digitatum [2] was 0.37 mg/L (≈ 1.2 µM). For the same compound, the Kd in series [4] (read-out: Kd) stood at 0.32 µM.

With `CCCC[C@@H](CCn1cncn1)c1ccc(OC)cc1`, the inhibition of growth at 50 µg/mL in the series with Penicillium digitatum [1] was found to be 97%. Further, in series [3], the result was Active. This compound yielded an EC50 in the series on Penicillium digitatum [2] of 0.97 mg/L (≈ 3.55 µM). Further, the Kd in series [4] (read-out: Kd) amounted to 0.18 µM.

Consider `CC(C)(C)C(=O)C(Oc1ccc(Cl)cc1)n1cncn1` (stereo not given) [TRIADIMEFON], for which the inhibition of growth at 50 µg/mL with Penicillium digitatum [1] was determined as 100%. Besides, the result in series [5] was Active. Moreover, the 50% effective concentration (EC50) in the series on Penicillium digitatum [2] is 2.27 mg/L (≈ 7.73 µM). Moreover, the equilibrium dissociation constant (Kd) in series [4] (read-out: Kd) came out at 0.99 µM.

Take `CCCC[C@H](CCn1cncn1)c1ccccc1`: in the series on Penicillium digitatum [1], the inhibition of growth at 50 µg/mL amounted to 73%. For the same compound, the outcome in series [3] was Active. In series [4] (read-out: Kd), the Kd turned out to be 0.76 µM.

Consider `CC[C@H](CCn1cncn1)c1ccc(OC)cc1`, for which the inhibition of growth at 50 µg/mL in the series with Penicillium digitatum [1] came out at 89%. In series [3], the result was Active. In addition, in series [4] (read-out: Kd), the dissociation constant (Kd) was determined as 0.063 µM.

`CCCC[C@H](CCn1cncn1)c1ccc(Cl)cc1`: the inhibition of growth at 50 µg/mL in the series on Penicillium digitatum [1] stood at 88%. In series [3], the outcome was Active. Besides, the dissociation constant (Kd) in series [4] (read-out: Kd) was determined as 0.35 µM.

`CC[C@@H](CCn1cncn1)c1ccc(OC)cc1`: in the series on Penicillium digitatum [1], the inhibition of growth at 50 µg/mL was 77%. The outcome in series [3] was Active. In addition, the Kd in series [4] (read-out: Kd) came out at 0.505 µM.

For the compound `CCCC[C@@H](CCn1cncn1)c1ccccc1`, in the series with Penicillium digitatum [1], the inhibition of growth at 50 µg/mL was found to be 65%. For the same compound, the Kd entry in series [4] (bl21-de3) was “Not Active”.

With `CCCC[C@H](CCn1cncn1)c1ccc(C)cc1`, the inhibition of growth at 50 µg/mL in the series on Penicillium digitatum [1] came to 93%. Further, in series [3], the outcome was Active. Further, the dissociation constant Kd in series [4] (read-out: Kd) turned out to be 0.046 µM.

Take `CCC[C@H](CCn1cncn1)c1ccccc1`: in the series with Penicillium digitatum [1], the inhibition of growth at 50 µg/mL was found to be 90%. Besides, the result in series [3] was Active. The Kd in series [4] (read-out: Kd) is 0.14 µM.

As to `CCCC[C@@H](CCn1cncn1)c1ccc(F)cc1`, the inhibition of growth at 50 µg/mL in the series with Penicillium digitatum [1] is 95%. In series [3], the result was Active. In the series with Penicillium digitatum [2], the EC50 worked out at 1.15 mg/L (≈ 4.4 µM). For the same compound, in series [4] (read-out: Kd), the Kd turned out to be 0.15 µM.

For the compound `CCC[C@H](CCn1cncn1)c1ccc(OC)cc1`, the inhibition of growth at 50 µg/mL in the series on Penicillium digitatum [1] was found to be 90%. Also, the outcome in series [3] was Active. In the series on Penicillium digitatum [2], this compound returned a 50% effective concentration (EC50) of 0.603 mg/L (≈ 2.33 µM). Moreover, the Kd in series [4] (read-out: Kd) worked out at 0.15 µM.

With `CC(C)(C)C(O)/C(=C\c1ccc(Cl)cc1Cl)n1cncn1` (stereo not given) [DINICONAZOLE], in series [5], the outcome was Active. Further, the Kd in series [4] (read-out: Kd) is 0.12 µM.

Consider `CC[C@H](CCn1cncn1)c1ccccc1`, for which, in the series on Penicillium digitatum [1], the inhibition of growth at 50 µg/mL stood at 84%. Also, the result in series [3] was Active. The compound also yielded an EC50 with Penicillium digitatum [2] of 0.577 mg/L (≈ 2.68 µM). The Kd in series [4] (read-out: Kd) turned out to be 0.034 µM.

As to `CCC[C@H](CCn1cncn1)c1ccc(F)cc1`, the inhibition of growth at 50 µg/mL in the series on Penicillium digitatum [1] came out at 89%. Also, the result in series [3] was Active. Further, in series [4] (read-out: Kd), the Kd was 0.25 µM.

In the case of `CC[C@@H](CCn1cncn1)c1ccc(Cl)cc1`, the inhibition of growth at 50 µg/mL with Penicillium digitatum [1] amounted to 23%. Also, the outcome in series [3] was Active. The compound also gave an EC50 in the series with Penicillium digitatum [2] of 61.1 mg/L (≈ 245 µM). Also, in series [4] (read-out: Kd), the Kd turned out to be 1.14 µM.

As for `CCC[C@@H](CCn1cncn1)c1ccc(F)cc1`, in the series on Penicillium digitatum [1], the inhibition of growth at 50 µg/mL is 78%. Also, in series [4] (bl21-de3), the Kd entry is reported as “Not Active”.

Consider `CCC[C@@H](CCn1cncn1)c1ccccc1`, for which, in the series with Penicillium digitatum [1], the inhibition of growth at 50 µg/mL stood at 79%. Moreover, the result in series [3] was Active. Also, the dissociation constant (Kd) in series [4] (read-out: Kd) is 0.21 µM.

Turning to `CCCC[C@@H](CCn1cncn1)c1ccc(Cl)cc1`, the inhibition of growth at 50 µg/mL in the series on Penicillium digitatum [1] is 83%. Also, in series [6], the result was Active. Moreover, the Kd in series [4] (read-out: Kd) is 0.34 µM.
